These results are taken from paper PMC10952433, “A Chemoenzymatic Approach To Produce a Cyclic Analogue of the Analgesic Drug MVIIA (Ziconotide)” (Angewandte Chemie (International Ed. in English), 2023).

Test [1] deals with T1, CaV2.2 (Homo sapiens, UniProt Q00975). Briefly: cell-based.
In test [2] the target is T1, CaV2.2.

T1 sequence (Q00975 whole entry, looked up): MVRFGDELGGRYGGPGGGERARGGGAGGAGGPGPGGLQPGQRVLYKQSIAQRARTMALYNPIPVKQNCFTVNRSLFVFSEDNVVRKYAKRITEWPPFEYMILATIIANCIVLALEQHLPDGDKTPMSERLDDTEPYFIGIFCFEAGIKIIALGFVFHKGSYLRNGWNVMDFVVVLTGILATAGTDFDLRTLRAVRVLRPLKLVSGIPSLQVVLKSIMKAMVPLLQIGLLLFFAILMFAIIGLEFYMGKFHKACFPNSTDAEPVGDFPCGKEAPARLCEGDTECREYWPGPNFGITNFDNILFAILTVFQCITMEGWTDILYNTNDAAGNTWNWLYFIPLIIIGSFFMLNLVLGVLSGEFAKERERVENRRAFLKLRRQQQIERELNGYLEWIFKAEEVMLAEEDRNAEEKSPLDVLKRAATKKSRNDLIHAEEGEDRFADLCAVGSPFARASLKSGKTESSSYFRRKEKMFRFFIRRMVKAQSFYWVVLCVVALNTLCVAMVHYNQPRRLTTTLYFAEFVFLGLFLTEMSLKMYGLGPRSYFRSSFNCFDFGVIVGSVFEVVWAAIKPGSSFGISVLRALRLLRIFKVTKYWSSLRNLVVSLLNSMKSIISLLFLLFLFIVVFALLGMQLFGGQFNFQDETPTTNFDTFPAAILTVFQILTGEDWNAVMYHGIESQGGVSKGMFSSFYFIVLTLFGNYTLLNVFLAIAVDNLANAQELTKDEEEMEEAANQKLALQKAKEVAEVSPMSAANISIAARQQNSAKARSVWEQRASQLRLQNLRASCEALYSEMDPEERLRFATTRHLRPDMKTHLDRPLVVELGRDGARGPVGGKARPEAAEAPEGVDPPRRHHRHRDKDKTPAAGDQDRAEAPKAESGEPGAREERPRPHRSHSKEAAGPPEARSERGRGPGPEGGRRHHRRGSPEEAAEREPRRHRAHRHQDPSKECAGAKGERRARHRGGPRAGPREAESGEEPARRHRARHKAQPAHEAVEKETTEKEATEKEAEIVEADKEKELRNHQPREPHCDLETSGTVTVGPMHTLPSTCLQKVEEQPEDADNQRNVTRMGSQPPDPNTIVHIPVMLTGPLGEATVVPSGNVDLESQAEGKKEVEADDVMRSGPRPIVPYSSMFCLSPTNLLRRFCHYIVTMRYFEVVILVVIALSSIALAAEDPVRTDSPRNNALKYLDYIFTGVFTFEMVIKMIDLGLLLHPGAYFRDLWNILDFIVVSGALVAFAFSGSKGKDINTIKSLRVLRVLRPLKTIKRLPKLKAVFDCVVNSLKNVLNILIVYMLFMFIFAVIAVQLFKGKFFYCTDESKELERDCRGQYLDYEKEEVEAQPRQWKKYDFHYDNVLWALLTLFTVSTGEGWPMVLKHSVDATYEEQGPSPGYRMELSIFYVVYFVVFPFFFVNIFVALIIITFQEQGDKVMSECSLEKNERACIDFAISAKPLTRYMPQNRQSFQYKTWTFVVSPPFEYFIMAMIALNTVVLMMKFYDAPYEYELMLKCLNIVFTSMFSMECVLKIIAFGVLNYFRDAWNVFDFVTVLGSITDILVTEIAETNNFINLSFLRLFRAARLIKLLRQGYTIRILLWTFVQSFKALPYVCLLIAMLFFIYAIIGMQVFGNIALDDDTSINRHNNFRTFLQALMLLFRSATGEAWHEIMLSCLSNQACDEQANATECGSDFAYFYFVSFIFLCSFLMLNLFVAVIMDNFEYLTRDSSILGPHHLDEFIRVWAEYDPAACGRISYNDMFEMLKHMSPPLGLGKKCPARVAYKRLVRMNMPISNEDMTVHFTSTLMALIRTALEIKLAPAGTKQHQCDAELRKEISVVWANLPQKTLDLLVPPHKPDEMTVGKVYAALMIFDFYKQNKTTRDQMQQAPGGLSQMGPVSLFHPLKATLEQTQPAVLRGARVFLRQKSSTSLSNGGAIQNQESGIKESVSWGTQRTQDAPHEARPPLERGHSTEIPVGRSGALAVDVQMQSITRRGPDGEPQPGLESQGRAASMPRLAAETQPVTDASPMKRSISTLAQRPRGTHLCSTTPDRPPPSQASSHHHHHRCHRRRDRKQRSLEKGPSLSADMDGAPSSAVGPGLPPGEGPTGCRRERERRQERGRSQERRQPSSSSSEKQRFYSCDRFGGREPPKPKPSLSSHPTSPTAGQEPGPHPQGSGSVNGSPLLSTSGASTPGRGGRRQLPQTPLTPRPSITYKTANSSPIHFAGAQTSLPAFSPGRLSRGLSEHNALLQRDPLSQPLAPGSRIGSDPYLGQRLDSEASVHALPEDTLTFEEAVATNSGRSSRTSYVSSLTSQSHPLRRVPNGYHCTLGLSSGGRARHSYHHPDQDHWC

Regarding `CCCC[C@@H]1NC(=O)[C@H](CC(C)C)NC(=O)[C@H](CCCNC(=N)N)NC(=O)[C@H](CO)NC(=O)[C@@H]2CSSC[C@@H]3NC(=O)[C@H](CO)NC(=O)CNC(=O)[C@H]([C@@H](C)O)NC(=O)[C@H](CSSC[C@H](NC(=O)[C@H](C)NC(=O)[C@H](C)NC(=O)CNC(=O)CN)C(=O)N[C@@H](CCCCN)C(=O)NCC(=O)N[C@@H](CCCCN)C(=O)NCC(=O)N[C@@H](C)C(=O)N[C@@H](CCCCN)C(=O)N2)NC(=O)[C@H](CSSC[C@@H](C(=O)N[C@@H](C)C(=O)NCC(=O)N[C@@H](CC(N)=O)C(=O)NCC(=O)N[C@@H](CC(C)C)C(=O)O)NC(=O)[C@H](CCCCN)NC(=O)CNC(=O)[C@H](CO)NC(=O)[C@H](CCCNC(=N)N)NC3=O)NC(=O)[C@H](CC(=O)O)NC(=O)[C@H](Cc2ccc(O)cc2)NC1=O` [M-7], at CaV2.2 [1], the EC50 is 55.5 nM. The same compound gave a LogEC50 at CaV2.2 [2] of -7.3.

For the compound `CCCC[C@@H]1NC(=O)[C@H](CC(C)C)NC(=O)[C@H](CCCNC(=N)N)NC(=O)[C@H](CO)NC(=O)[C@@H]2CSSC[C@@H]3NC(=O)[C@H](CO)NC(=O)CNC(=O)[C@H]([C@@H](C)O)NC(=O)[C@H](CSSC[C@H](NC(=O)[C@H](C)NC(=O)CNC(=O)CN)C(=O)N[C@@H](CCCCN)C(=O)NCC(=O)N[C@@H](CCCCN)C(=O)NCC(=O)N[C@@H](C)C(=O)N[C@@H](CCCCN)C(=O)N2)NC(=O)[C@H](CSSC[C@@H](C(=O)N[C@@H](C)C(=O)NCC(=O)N[C@@H](CC(N)=O)C(=O)NCC(=O)N[C@@H](CC(C)C)C(=O)O)NC(=O)[C@H](CCCCN)NC(=O)CNC(=O)[C@H](CO)NC(=O)[C@H](CCCNC(=N)N)NC3=O)NC(=O)[C@H](CC(=O)O)NC(=O)[C@H](Cc2ccc(O)cc2)NC1=O` [M-6], on CaV2.2 [1], a half-maximal response (EC50) required 67.8 nM. The compound also returned a LogEC50 on CaV2.2 [2] of -7.2.

In the case of `CCCC[C@@H]1NC(=O)[C@H](CC(C)C)NC(=O)[C@H](CCCNC(=N)N)NC(=O)[C@H](CO)NC(=O)[C@@H]2CSSC[C@@H]3NC(=O)[C@H](CO)NC(=O)CNC(=O)[C@H]([C@@H](C)O)NC(=O)[C@H](CSSC[C@H](NC(=O)[C@H](C)NC(=O)[C@H](C)NC(=O)CNC(=O)CN)C(=O)N[C@@H](CCCCN)C(=O)NCC(=O)N[C@@H](CCCCN)C(=O)NCC(=O)N[C@@H](C)C(=O)N[C@@H](CCCCN)C(=O)N2)NC(=O)[C@H](CSSC[C@@H](C(=O)N[C@@H](C)C(=O)N[C@@H](C)C(=O)NCC(=O)NCC(=O)N[C@@H](CC(N)=O)C(=O)NCC(=O)N[C@@H](CC(C)C)C(=O)O)NC(=O)[C@H](CCCCN)NC(=O)CNC(=O)[C@H](CO)NC(=O)[C@H](CCCNC(=N)N)NC3=O)NC(=O)[C@H](CC(=O)O)NC(=O)[C@H](Cc2ccc(O)cc2)NC1=O` [M-9], on CaV2.2 [1], a half-maximal effect (EC50) was put at 31.9 nM and the IC50 was 31.9 ± 2.6 nM. At CaV2.2 [2], this compound had a LogEC50 of -7.5.

For `CCCC[C@@H]1NC(=O)[C@H](CC(C)C)NC(=O)[C@H](CCCNC(=N)N)NC(=O)[C@H](CO)NC(=O)[C@@H]2CSSC[C@@H]3NC(=O)[C@H](CO)NC(=O)CNC(=O)[C@H]([C@@H](C)O)NC(=O)[C@H](CSSC[C@H](NC(=O)[C@H](C)NC(=O)[C@H](C)NC(=O)CNC(=O)CN)C(=O)N[C@@H](CCCCN)C(=O)NCC(=O)N[C@@H](CCCCN)C(=O)NCC(=O)N[C@@H](C)C(=O)N[C@@H](CCCCN)C(=O)N2)NC(=O)[C@H](CSSC[C@@H](C(=O)N[C@@H](C)C(=O)NCC(=O)NCC(=O)N[C@@H](CC(N)=O)C(=O)NCC(=O)N[C@@H](CC(C)C)C(=O)O)NC(=O)[C@H](CCCCN)NC(=O)CNC(=O)[C@H](CO)NC(=O)[C@H](CCCNC(=N)N)NC3=O)NC(=O)[C@H](CC(=O)O)NC(=O)[C@H](Cc2ccc(O)cc2)NC1=O` [M-8], the EC50 at CaV2.2 [1] stood at 78.7 nM. The same compound gave a LogEC50 on CaV2.2 [2] of -7.1.

As usually defined, the EC50 is the concentration giving half of the maximal effect. Read a high EC50 as lower potency in that assay. In general, IC50 refers to the concentration that inhibits the measured activity by half. Read a low IC50 as greater potency.
